Entries after “also recorded” stand apart in the source; their conditions may differ.
Key:
rats = experiment: Behavioral test (righting, placing-stepping, pinna and corneal reflexes); assay type: in vivo, rat; conditions: maximum dose, intrathecal or intravenous administration
Method: 4-1. Behavioral Efficacy Test Method
Additional rats received the highest doses of drugs used to evaluate behavioral changes at 5, 10, 20, 30, 40, 50, and 60 min after intrathecal or intravenous administration to caudal vein. Motor functions were examined using the righting and placing-stepping reflexes. The righting reflex was evaluated by an immediate coordinated twisting of the body to an upright position when placing the rat horizontally with its back on the table. The placing-stepping reflex was induced by drawing the dorsum of hind paw across the edge of the table. Rats normally attempt to put their paws forward into a position for walking. Pinna and corneal reflexes were also assessed and judged as present or absent. Other abnormal behaviors, such as serpentine movement or tremors, were also evaluated.

[1] = Metabolic stability in microsomes, mouse; assay type: in vitro ADME; conditions: 30 min
[2] = system: CIPN rats (mechanical allodynia); experiment: Antiallodynic effect (von Frey) in chemotherapy-induced peripheral neuropathy (CIPN) rats; assay type: in vivo; conditions: Rattus norvegicus, intravenous administration
Method: (§1) 3-1. Evaluation of In Vivo Efficacy
(§2) The antiallodynic effects (mechanical allodynia) were evaluated using rats according to a previously reported protocol. In order to evaluate the withdrawal threshold, rats (naive, SNL and CIPN) were placed on a plastic mesh floor of individual plastic cages. The rats were allowed to acclimate to the environment for 30 minutes and examined after intrathecal or intravenous administration to the caudal vein. The control group received the same volume of vehicle (intrathecal administration of saline or DMSO, intravenous administration of DMSO:PEG:PBS=1:6:3 v/v %) as the experimental groups. Evaluation of the mechanical withdrawal threshold was measured in responses to the application of calibrated von Frey filaments (Stoelting, Wood Dale, Ill., USA) to the hind paw of the rats through the holes on the mesh floor underneath the cage using the ‘up and down method’. A series of eight von Frey filaments (0.4, 0.7, 1.2, 2.0, 3.6, 5.5, 8.5, and 15 g) was applied perpendicular to the sole of the hind paw for 5 seconds while the head was bent. Active withdrawal or flinching of the paw was considered as a positive reaction. The absence of response in the rats, when a pressure was applied to 15 g von Frey filament, was used as a cut-off value. Only rats with definite allodynia (i.e., mechanical withdrawal threshold: less than 4 g after SNL or less than 5 g after CIPN) were tested. The rats after termination of the experiments were euthanized through an overdose of sevoflurane. The withdrawal threshold data for the von Frey filament test was calculated as % MPE (maximum possible effect) based on the following Calculation Equation: % MPE=[(Post-drug threshold−Post-injured baseline threshold)/(Cutoff threshold−post-injured baseline threshold)×100]. Dose-response data were analyzed using Scheffe's post hoc test and one-way analysis of variance (ANOVA).

[3] = system: neuropathic pain (NeP) animal models; experiment: Efficacy in neuropathic pain (NeP) animal models, model not specified; assay type: in vivo, rat
Method: as §1, §2

CYP450 2C9 = target: T1, CYP450 2C9 (Homo sapiens, UniProt P11712); experiment: CYP inhibition assay (Vivid fluorometric), 2C9; assay type: biochemical; conditions: 1 μM in Table 5
T1 construct: purchased Invitrogen
T1 sequence (P11712 whole entry): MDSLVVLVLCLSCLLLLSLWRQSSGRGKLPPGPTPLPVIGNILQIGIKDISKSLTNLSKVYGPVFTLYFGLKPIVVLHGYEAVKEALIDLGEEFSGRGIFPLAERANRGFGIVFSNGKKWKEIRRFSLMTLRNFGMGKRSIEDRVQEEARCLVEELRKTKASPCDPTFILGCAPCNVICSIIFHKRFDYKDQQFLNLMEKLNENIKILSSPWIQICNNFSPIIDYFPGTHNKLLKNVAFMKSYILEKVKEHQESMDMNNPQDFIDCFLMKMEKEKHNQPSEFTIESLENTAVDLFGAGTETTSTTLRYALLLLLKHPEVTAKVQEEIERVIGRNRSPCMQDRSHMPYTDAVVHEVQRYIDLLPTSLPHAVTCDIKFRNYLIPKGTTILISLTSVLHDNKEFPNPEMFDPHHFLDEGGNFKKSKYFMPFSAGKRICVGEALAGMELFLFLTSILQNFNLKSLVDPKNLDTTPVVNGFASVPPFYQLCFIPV
Method: (§3) CYP450 (1A2, 2C9, 3A4) enzyme assay was performed by a fluorometric assay using a Vivid® CYP450 screening kit (Invitrogen, USA, CA) in a 96-well black plate according to manufacturer's instructions with some modifications. The assay was performed at room temperature, and the final assay volume was 100 μL. […]
(§4) A master pre-mixture (enzyme (0.5 nmol recombinant human CYP450 enzyme)/NADP regeneration solution (333 mM glucose-6-phosphate dissolved, 30 U/mL glucose-6-phosphate dehydrogenase in 100 mM KH2PO4 solution at pH 8.0)) was prepared as a CYP450 reaction buffer (200 mM KH2PO4, pH 8.0). The master pre-mixture was added to each well of the 96 well plate, followed by the vehicle DMSO (control) and test compounds, and the mixture was preincubated for 10 minutes in the plate for background reading. Subsequently, the enzyme reaction was immediately initiated through the addition of CYP450 substrate/NADP^+ mixture. After incubation for 40 minutes, the fluorescence of the product was measured with a CHAMELEON™ multi-technology plate reader (2C9, 3A4: excitation wavelength of 530 nm and emission wavelength of 590 nm, 1A2: excitation wavelength of 415 nm and emission wavelength of 460 nm). The effect of the test compounds on CYP450 (1A2, 2C9, 3A4) was expressed as the percentage of enzyme activity.

CYP450 1A2 = target: T2, CYP450 1A2 (Homo sapiens, UniProt P05177); experiment: CYP inhibition assay (Vivid fluorometric), 1A2; assay type: biochemical; conditions: 1 μM in Table 5
T2 construct: purchased Invitrogen
T2 sequence (P05177 1-516): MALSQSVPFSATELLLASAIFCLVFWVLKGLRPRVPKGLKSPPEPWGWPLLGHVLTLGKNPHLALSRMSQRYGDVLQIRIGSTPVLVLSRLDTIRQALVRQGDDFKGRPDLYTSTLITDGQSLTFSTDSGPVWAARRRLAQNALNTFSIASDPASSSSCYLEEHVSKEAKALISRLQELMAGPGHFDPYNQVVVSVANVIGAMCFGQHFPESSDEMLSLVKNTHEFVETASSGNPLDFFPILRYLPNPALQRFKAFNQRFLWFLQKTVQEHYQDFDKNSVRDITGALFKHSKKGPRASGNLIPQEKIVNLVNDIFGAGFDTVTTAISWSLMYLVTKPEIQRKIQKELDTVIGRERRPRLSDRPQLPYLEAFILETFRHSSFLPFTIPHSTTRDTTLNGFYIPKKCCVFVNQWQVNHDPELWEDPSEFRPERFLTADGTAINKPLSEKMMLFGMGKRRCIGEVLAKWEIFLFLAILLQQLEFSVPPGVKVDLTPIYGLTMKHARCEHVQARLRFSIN
Method: as §3, §4

CYP1A2 = target: T3, CYP1A2 (Homo sapiens, UniProt P05177); experiment: CYP inhibition assay (Vivid fluorometric), 1A2; assay type: biochemical; conditions: human, recombinant human CYP1A2, pH 8; 1 μM in Table 5; read-out: CYP450 inhibition, 1A2 isozyme
T3 construct: purchased Invitrogen
T3 sequence (P05177 1-516): T2 sequence (P05177 1-516)
Method: as §3, §4

pinna and corneal reflexes (rats) | righting and position-stepping reflexes (rats) | Metabolic stability, microsomes, Mouse [1] [% remaining after 30 min] | CYP450 inhibition, 2C9 isozyme (CYP450 2C9) | CYP450 inhibition, 1A2 isozyme (CYP450 1A2) | inhibition at 40 min, 1 µM (CYP1A2) [%] | Compound | abnormal behavior changes (rats) | ED50 [2] [mg/kg] | in vivo efficacy in early animal experiments ([3]; early animal experiments) | antiallodynic effect upon intraperitoneal and intravenous administration ([3]; NeP animal models, i.p. and i.v.) | antiallodynic effect upon intramedullary administration ([3]; NeP rats)
present | normal | 35 | – | – | – | CCCc1nc(Cc2cccc(Oc3ccccc3)c2)c(C)c(C(=O)OC)c1O [Compound 28, Methyl 3-hydroxy-5-methyl-6-(3-phenoxybenzyl)-2-propylisonicotinate] | no obvious abnormal behavior changes were observed | 2.93 | – | – | –
– | – | – | – | – | – | CCCc1nc(CCc2ccc(OC)cc2)c(C(=O)O)c(C(=O)O)c1O [Compound 13d, 5-Hydroxy-2-(4-methoxyphenethyl)-6-propylpyridine-3,4-dicarboxylic acid] | – | – | weak in vivo efficacy | – | –
present | normal | 2 | weak inhibitory effect | weak inhibitory effect | 36 ± 3 | CCCc1nc(Cc2cccc(Oc3ccccc3)c2)c(C)c(C(=O)O)c1O [Compound 29, 3-Hydroxy-5-methyl-6-(3-phenoxybenzyl)-2-propylisonicotinic acid] | no obvious abnormal behavior changes were observed | – | – | no antiallodynic effect; also recorded: no pharmacological activity was observed; also recorded: did not provide an antiallodynic effect | potent antiallodynic effect
